{"source": "ChEMBL document CHEMBL3864152", "about": "“Discovery of ursolic acid prodrug (NX-201): Pharmacokinetics and in vivo antitumor effects in PANC-1 pancreatic cancer” (Bioorg Med Chem Lett, 2016)", "key": {"[1]": {"test": "AUC in rat at 25 mg/kg, po", "format": "ADME, organism-based", "conditions": "in vivo"}, "[2]": {"test": "Cmax in rat at 25 mg/kg, po", "format": "ADME, organism-based", "design": "dose 25 mg/kg, route oral", "conditions": "in vivo"}, "[3]": {"test": "Oral bioavailability in rat at 25 mg/kg", "format": "ADME, organism-based", "conditions": "in vivo"}, "PANC-1 [4]": {"tested_on": "PANC-1", "test": "Antitumor activity against human PANC1 cells xenografted in non-obese diabetic […] SCID mouse assessed as tumor growth inhibition at 50 mg/kg, po administered daily measured after 3 weeks in presence of gemcitabine", "format": "functional, organism-based"}, "[5]": {"test": "Tmax in rat at 25 mg/kg, po", "format": "ADME, organism-based", "conditions": "in vivo"}, "Mus musculus [6]": {"tested_on": "Mus musculus", "test": "Toxicity in non-obese diabetic […] SCID mouse xenografted with human PANC1 cells assessed as change in body weight at 25 to 100 mg/kg, po administered daily for 4 weeks", "format": "organism-based, PANC-1", "conditions": "in vivo, 672 h"}, "Mus musculus [7]": {"tested_on": "Mus musculus", "test": "Toxicity in non-obese diabetic […] SCID mouse xenografted with human PANC1 cells assessed as change in body weight at 50 mg/kg, po administered daily for 4 weeks in presence of gemcitabine", "format": "organism-based, PANC-1", "conditions": "in vivo, 672 h"}, "[8]": {"test": "Half life in rat at 25 mg/kg, po", "format": "ADME, organism-based", "conditions": "in vivo"}, "PANC-1 [9]": {"tested_on": "PANC-1", "test": "Antitumor activity against human PANC1 cells xenografted in po dosed non-obese diabetic […] SCID mouse assessed as tumor growth inhibition administered daily for 4 weeks", "format": "functional, organism-based"}, "PANC-1 [10]": {"tested_on": "PANC-1", "test": "Antitumor activity against human PANC1 cells xenografted in non-obese diabetic […] SCID mouse assessed as tumor growth inhibition at 40 mg/kg, iv administered 2 times per week for 4 weeks", "format": "functional, organism-based"}, "Mus musculus [11]": {"tested_on": "Mus musculus", "test": "Toxicity in non-obese diabetic […] SCID mouse xenografted with human PANC1 cells assessed as change in body weight at 40 mg/kg, iv administered 2 times per week for 4 weeks", "format": "organism-based, PANC-1", "conditions": "in vivo, 672 h"}, "[12]": {"test": "Oral bioavailability in Sprague-Dawley rat at 25 mg/kg", "format": "ADME, organism-based", "conditions": "in vivo"}, "Mus musculus [13]": {"tested_on": "Mus musculus", "test": "Toxicity in non-obese diabetic […] SCID mouse xenografted with human PANC1 cells assessed as change in body weight at 50 mg/kg, po administered daily for 4 weeks", "format": "organism-based, PANC-1", "conditions": "in vivo, 672 h"}, "in vivo": {"test": "in vivo", "conditions": "rat, iv, 0.5 mg/kg", "description": "Cmax in rat at 0.5 mg/kg, iv"}, "[14]": {"test": "Dissociation constant, pKa of the compound", "format": "physicochemical"}, "[15]": {"test": "Tmax in rat at 0.5 mg/kg, iv", "format": "ADME, organism-based", "conditions": "in vivo"}, "[16]": {"test": "Half life in rat at 0.5 mg/kg, iv", "format": "ADME, organism-based", "conditions": "in vivo"}, "[17]": {"test": "AUC in rat at 0.5 mg/kg, iv", "format": "ADME, organism-based", "conditions": "in vivo"}}, "note": "Active and inactive are the calls of the source. No cut-off for these calls is given here.", "data": [{"smiles": "Cc1oc(=O)oc1COC(=O)[C@]12CC[C@@H](C)[C@H](C)[C@H]1C1=CC[C@@H]3[C@@]4(C)CC[C@H](O)C(C)(C)[C@@H]4CC[C@@]3(C)[C@]1(C)CC2", "values": [{"measurement": "AUC", "setting": "[1]", "value": 132, "unit": "ng·h/mL"}, {"measurement": "Cmax", "setting": "[2]", "value": 30.3, "unit": "ng/mL"}, {"measurement": "bioavailability", "setting": "[3]", "value": 2.3, "unit": "%"}, {"measurement": "TGI", "setting": "PANC-1 [4]", "value": "Active"}, {"measurement": "Tmax", "setting": "[5]", "value": 87.6, "unit": "min"}, {"measurement": "Activity", "setting": "Mus musculus [6]", "value": "Non-Toxic"}, {"measurement": "Activity", "setting": "Mus musculus [7]", "value": "Non-Toxic"}, {"measurement": "half-life", "setting": "[8]", "value": 283, "unit": "min"}, {"measurement": "TGI", "setting": "PANC-1 [9]", "value": "Dose-dependent effect"}]}, {"smiles": "Nc1ccn([C@@H]2O[C@H](CO)[C@@H](O)C2(F)F)c(=O)n1", "note": "[GEMCITABINE]", "values": [{"measurement": "TGI", "setting": "PANC-1 [10]", "value": "Active"}, {"measurement": "Activity", "setting": "Mus musculus [11]", "value": "Non-Toxic"}]}, {"smiles": "CC1(C)CC[C@]2(C(=O)O)CC[C@]3(C)C(=CC[C@@H]4[C@@]5(C)CC[C@H](O)C(C)(C)[C@@H]5CC[C@]43C)[C@@H]2C1", "note": "[OLEANOLIC_ACID]", "values": [{"measurement": "bioavailability", "setting": "[12]", "value": 0.7, "unit": "%"}]}, {"smiles": "C[C@H]1[C@H](C)CC[C@]2(C(=O)O)CC[C@]3(C)C(=CC[C@@H]4[C@@]5(C)CC[C@H](O)C(C)(C)[C@@H]5CC[C@]43C)[C@H]12", "note": "[URSOLIC ACID]", "values": [{"measurement": "Activity", "setting": "Mus musculus [13]", "value": "Non-Toxic"}, {"measurement": "AUC", "setting": "[1]", "value": 0.6, "unit": "ng·h/mL"}, {"measurement": "Cmax", "setting": "[2]", "value": 1.9, "unit": "ng/mL"}, {"measurement": "bioavailability", "setting": "[3]", "value": "< 0.01", "unit": "%"}, {"measurement": "Cmax", "setting": "in vivo", "value": 378, "unit": "ng/mL"}, {"measurement": "pKa", "setting": "[14]", "value": 5.29}, {"measurement": "Tmax", "setting": "[5]", "value": 15, "unit": "min"}, {"measurement": "Tmax", "setting": "[15]", "value": 4.8, "unit": "min"}, {"measurement": "half-life", "setting": "[8]", "value": 18, "unit": "min"}, {"measurement": "half-life", "setting": "[16]", "value": 93, "unit": "min"}, {"measurement": "AUC", "setting": "[17]", "value": 114, "unit": "ng·h/mL"}]}]}
